Compound: CN(C)C/C=C/C(=O)Nc1cc2c(Nc3ccc(F)c(Cl)c3)ncnc2cc1O[C@H]1CCOC1 [Afatinib]
Assay: relative viability (nuclei count vs DMSO), 5 days (fraction); higher = more cells survive
How it was run: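 Viability is treated-well nuclei as a fraction of vehicle-well nuclei, reported as the median across plates. Before counting, lung cancer cell lines were kept overnight at 37 °C in 1536-well plates, pinned with five √10-spaced library-drug doses on vehicle-anchored plates, and left 5 days without medium change, then fixed, permeabilised and Hoechst-stained in one step, imaged at 4× and counted by MetaXpress. A plate passed only if control CV was below 25% and at least one doubling occurred.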

| Cell Line | relative viability (0.005 µM) | relative viability (0.01581 µM) | relative viability (0.05 µM) | relative viability (0.1581 µM) | relative viability (0.5 µM) |
| --- | --- | --- | --- | --- | --- |
| NCI-H441 | 1.08 | 0.997 | 1.18 | 0.982 | 0.948 |
| NCI-H1793 | 0.829 | 0.616 | 0.558 | 0.418 | 0.536 |
| NCI-H23 | 1.1 | 0.976 | 0.922 | 0.97 | 0.792 |
| HARA | 0.947 | 0.55 | 0.471 | 0.62 | 0.597 |
| NCI-H1792 | 1.09 | 0.786 | 0.853 | 0.988 | 0.661 |
| NCI-H1703 | 1.25 | 0.749 | 1.03 | 0.853 | 0.713 |
| NCI-H2342 | 0.896 | 0.936 | 0.889 | 0.826 | 0.726 |
| CAL-12T | 1 | 0.843 | 0.748 | 0.489 | 0.654 |
| NCI-H727 | 0.787 | 0.765 | 0.758 | 0.694 | 0.837 |
| NCI-H2085 | 0.99 | 0.958 | 0.856 | 0.757 | 0.858 |
| NCI-H1395 | 1.07 | 0.744 | 1 | 1.05 | 0.849 |
| NCI-H1648 | 0.881 | 0.765 | 0.437 | 0.478 | 0.457 |
| NCI-H460 | 1.01 | 1 | 0.996 | 1.01 | 1 |
| A549 | 0.969 | 1 | 0.938 | 0.867 | 0.858 |
| IA-LM | 0.925 | 0.868 | 0.905 | 0.883 | 0.871 |
| EKVX | 0.779 | 0.718 | 0.51 | 0.292 | 0.334 |
| ChaGo-K-1 | 1.07 | 1 | 0.996 | 0.977 | 0.999 |
| NCI-H1755 | 0.997 | 0.983 | 1.05 | 1 | 1.02 |
| NCI-H2228 | 1.24 | 0.884 | 0.812 | 0.953 | 1.05 |
| NCI-H2087 | 1.06 | 0.857 | 1.04 | 0.998 | 0.895 |

| Cell Line | relative viability (0.005 µM) | relative viability (0.01581 µM) | relative viability (0.05 µM) | relative viability (0.1581 µM) | relative viability (0.5 µM) |
| --- | --- | --- | --- | --- | --- |
| LU99A | 1.15 | 0.984 | 0.94 | 0.924 | 0.975 |
| NCI-H1355 | 0.976 | 0.959 | 0.943 | 0.849 | 0.893 |
| NCI-H520 | 1.08 | 0.978 | 0.995 | 1 | 0.96 |
| NCI-H661 | 1.02 | 0.863 | 0.831 | 0.626 | 0.691 |
| NCI-H650 | 1.06 | 0.974 | 1.07 | 0.89 | 0.875 |
| NCI-H647 | 0.999 | 0.878 | 0.998 | 0.968 | 1.04 |
| 201T | 1.01 | 0.942 | 0.944 | 0.92 | 0.956 |
| NCI-H838 | 1.01 | 0.966 | 0.988 | 0.918 | 1.05 |
| SW 1573 | 0.978 | 0.962 | 1 | 0.962 | 0.925 |
| PC-14 | 0.371 | 0.224 | 0.298 |  | 0.282 |
| LK-2 | 1.25 | 0.91 | 0.926 | 0.977 | 0.956 |
| COR-L23 | 1.08 | 0.944 | 1.11 | 1.04 | 1.01 |
| NCI-H1944 | 0.916 | 0.906 | 0.794 | 0.575 | 0.73 |
| HCC-78 | 1.07 | 0.89 | 0.898 | 0.791 | 0.815 |
| NCI-H2405 | 1.01 | 0.959 | 1.08 | 0.957 | 1.02 |
| SK-LU-1 | 1.07 | 1 | 1.07 | 1.05 | 1.06 |
| EMC-BAC-2 | 1.12 | 0.821 | 1.14 | 1.01 | 1.02 |
| NCI-H1650 | 0.755 |  | 0.896 | 0.696 | 0.736 |
| NCI-H596 | 1.09 | 0.913 | 0.933 | 0.936 | 0.928 |
